Measured values from US20260026504A1, “COMPOUND […] STRUCTURE, APPLICATION, AND INSECTICIDE” (Anhui Shengfeng Biochemical Co., Ltd, priority 2022, published 2026).
Read-outs that look alike come from different tables or passages of the source.

System: diamondback moth (Plutella xylostella) second instar larvae
Assay: Toxicity to diamondback moth larvae by the leaf-dipping method
Type: in vivo
Conditions: corrected mortality grade, 1 ppm, cabbage leaf dip; for mortality at 1 ppm: Plutella xylostella, in Brassica oleracea, foliar
Method: Determining the toxicity activity of part of compounds on diamondback moth (Plutella xylostella) instar larvae by the leafdipping method.
The test agents of the compounds in Table 2 were weighed out accurately with an electronic analytical balance, and the original drug was dissolved in a 10000 ppm solution with dimethyl sulfoxide as the solvent and then diluted with 0.1% of Triton solution to 1 ppm and 0.25 ppm solutions. Taking the cabbage not contacted with the liquid medicine, and cutting the leaves into 6 cm-diameter circular leaves. Soaking the leaves in the prepared liquid medicine for 15 seconds, taking out and drying, and placing the leaves into 6 cm culture dishes, wherein 1 cabbage leaf is placed in each culture dish. The same standard second instar larvae were placed in petri dishes with 10 heads per dish and 4 replicates per concentration for a total of 40 heads. After inoculation, the culture dish is placed in a constant-temperature culture chamber with the temperature of 25±1° C. and the illumination period of 16 (D) to 8 (L) h, and the number of dead and live larvae is investigated after 48 h and 72 h. A blank and a control of compound K1 and compound K2 were also provided.
The mortality is calculated according to the following formula 1, then the corrected mortality is calculated according to the formula 2, and finally the classification is carried out according to the corrected mortality value and the rating standard shown in the table 2, and the specific results are shown in the tables 3 and 4.
mortality %=(number of dead insects/total number of insects)×100% Equation 1;
corrected mortality %=[(treatment-control mortality)/(1-control mortality)]×100% Equation 2.

[1] = 48 h, 48 h, read-out: mortality (1 ppm) 48 h
[2] = 72 h, 72 h, read-out: mortality (1 ppm) 72 h

Row | Structure (SMILES) | mortality at 1 ppm [1] [%] | mortality at 1 ppm [2] [%] | mortality (1 ppm) 72 h (72 h)
1 | Cc1cc(C2=NOC(c3cc(Cl)cc(Cl)c3)(C(F)(F)F)C2)ccc1C(=O)Nc1cnn(C2CCOCC2)c1 (stereo not drawn) [Compound 40] | 50 to 70 | 50 to 70 | 
2 | CC(=O)n1cc(NC(=O)c2ccc(C3=NOC(c4cc(Cl)c(F)c(Cl)c4)(C(F)(F)F)C3)cc2C)cn1 (stereo not drawn) [Compound 140] |  | 50 to 70 | 
3 | Cc1cc(C2=NOC(c3cc(Cl)cc(Cl)c3)(C(F)(F)F)C2)ccc1C(=O)Nc1cnn(CCF)c1 (stereo not drawn) [Compound 9] |  | 80 to 90 | 
4 | Cc1cc(C2=NOC(c3cc(Cl)cc(Cl)c3)(C(F)(F)F)C2)ccc1C(=O)Nc1cnn(C2CC2)c1 (stereo not drawn) [Compound 23] | 100 | 100 | 
5 | Cc1cc(C2=NOC(c3cc(Cl)cc(Cl)c3)(C(F)(F)F)C2)ccc1C(=O)Nc1cnn(C(=O)N(C)C)c1 (stereo not drawn) [Compound 67] |  | 90 to 100 | 
6 | Cc1cc(C2=NOC(c3cc(Cl)cc(Cl)c3)(C(F)(F)F)C2)ccc1C(=O)Nc1cnn(C(C)C)c1 (stereo not drawn) [Compound 5] | 90 to 100 | 100 | 
7 | Cc1cc(C2=NOC(c3cc(Cl)cc(Cl)c3)(C(F)(F)F)C2)ccc1C(=O)Nc1cnn(-c2cccc(F)c2)c1 (stereo not drawn) [Compound 47] |  | 50 to 70 | 
8 | Cc1cc(C2=NOC(c3cc(Cl)cc(Cl)c3)(C(F)(F)F)C2)ccc1C(=O)Nc1cnn(S(=O)(=O)C2CCCCC2)c1 (stereo not drawn) [Compound 75] | 90 to 100 | 90 to 100 | 
9 | Cc1cc(C2=NOC(c3cc(Cl)cc(Cl)c3)(C(F)(F)F)C2)ccc1C(=O)Nc1cnn(-c2ccc(F)cc2)c1 (stereo not drawn) [Compound 52] |  | 50 to 70 | 
10 | Cc1cc(C2=NOC(c3cc(Cl)cc(Cl)c3)(C(F)(F)F)C2)ccc1C(=O)Nc1cnn(C)c1 (stereo not drawn) [Compound 2] | 80 to 90 | 100 | 
11 | Cc1cc(C2=NOC(c3cc(Cl)c(F)c(Cl)c3)(C(F)(F)F)C2)ccc1C(=O)Nc1cnn(CC2CC2)c1 (stereo not drawn) [Compound 133] | 80 to 90 | 100 | 
12 | CC(=O)n1cc(NC(=O)c2ccc(C3=NOC(c4cc(Cl)cc(Cl)c4)(C(F)(F)F)C3)cc2C)cn1 (stereo not drawn) [Compound 58] |  | 50 to 70 | 
13 | CCC(=O)n1cc(NC(=O)c2ccc(C3=NOC(c4cc(Cl)cc(Cl)c4)(C(F)(F)F)C3)cc2C)cn1 (stereo not drawn) [Compound 59] |  | 50 to 70 | 
14 | Cc1cc(C2=NOC(c3cc(Cl)cc(Cl)c3)(C(F)(F)F)C2)ccc1C(=O)Nc1cnn(CC(F)F)c1 (stereo not drawn) [Compound 8] | 50 to 70 | 80 to 90 | 
15 | CCn1nc(C)c(NC(=O)c2ccc(C3=NOC(c4cc(Cl)cc(Cl)c4)(C(F)(F)F)C3)cc2C)c1C (stereo not drawn) [Compound 97] |  | 80 to 90 | 
16 | Cc1cc(C2=NOC(c3cc(Cl)cc(Cl)c3)(C(F)(F)F)C2)ccc1C(=O)Nc1cnn(S(=O)(=O)c2ccccc2)c1 (stereo not drawn) [Compound 73] |  | 50 to 70 | 
17 | Cc1cc(C2=NOC(c3cc(Cl)c(F)c(Cl)c3)(C(F)(F)F)C2)ccc1C(=O)Nc1cnn(C2CCCC2)c1 (stereo not drawn) [Compound 131] | 80 to 90 | 100 | 
18 | CCC(C)n1cc(NC(=O)c2ccc(C3=NOC(c4cc(Cl)cc(Cl)c4)(C(F)(F)F)C3)cc2C)cn1 (stereo not drawn) [Compound 16] |  | 70 to 80 | 
19 | Cc1cc(C2=NOC(c3cc(Cl)cc(Cl)c3)(C(F)(F)F)C2)ccc1C(=O)Nc1cnn(-c2ccccc2Br)c1 (stereo not drawn) [Compound 44] |  | 50 to 70 | 
20 | Cc1cc(C2=NOC(c3cc(Cl)c(F)c(Cl)c3)(C(F)(F)F)C2)ccc1C(=O)Nc1cnn(C2CCCCC2)c1 (stereo not drawn) [Compound 137] |  |  | C (80% to less than 90%)
21 | Cc1cc(C2=NOC(c3cc(Cl)c(F)c(Cl)c3)(C(F)(F)F)C2)ccc1C(=O)Nc1cnn(C)c1 (stereo not drawn) [Compound 124] | 80 to 90 | 100 | 
22 | Cc1cc(C2=NOC(c3cc(Cl)c(F)c(Cl)c3)(C(F)(F)F)C2)ccc1C(=O)Nc1cn[nH]c1 (stereo not drawn) [Compound 123] | 90 to 100 | 100 | 
23 | Cc1cc(C2=NOC(c3cc(Cl)c(F)c(Cl)c3)(C(F)(F)F)C2)ccc1C(=O)Nc1cnn(C2CCCCC2)c1 (stereo not drawn) [Compound 132] | 50 to 70 | 100 | 
24 | Cc1cc(C2=NOC(c3cc(Cl)cc(Cl)c3)(C(F)(F)F)C2)ccc1C(=O)Nc1cnn(CC2CCCCC2)c1 (stereo not drawn) [Compound 33] |  | 50 to 70 | 
25 | Cc1cc(C2=NOC(c3cc(Cl)c(F)c(Cl)c3)(C(F)(F)F)C2)ccc1C(=O)Nc1c(C)n[nH]c1C (stereo not drawn) [Compound 158] | 50 to 70 | 90 to 100 | 
26 | Cc1cc(C2=NOC(c3cc(Cl)cc(Cl)c3)(C(F)(F)F)C2)ccc1C(=O)Nc1cnn(CC2CC2)c1 (stereo not drawn) [Compound 30] |  | 50 to 70 | 

Row | Structure (SMILES) | mortality at 1 ppm [1] [%] | mortality at 1 ppm [2] [%] | mortality (1 ppm) 72 h (72 h)
27 | CCN(CC)C(=O)n1cc(NC(=O)c2ccc(C3=NOC(c4cc(Cl)c(F)c(Cl)c4)(C(F)(F)F)C3)cc2C)cn1 (stereo not drawn) [Compound 150] | 80 to 90 | 100 | 
28 | Cc1cc(C2=NOC(c3cc(Cl)c(F)c(Cl)c3)(C(F)(F)F)C2)ccc1C(=O)Nc1c(C)nn(C(=O)C(C)C)c1C (stereo not drawn) [Compound 171] |  | 80 to 90 | 
29 | Cc1cc(C2=NOC(c3cc(Cl)cc(Cl)c3)(C(F)(F)F)C2)ccc1C(=O)Nc1cnn(CCC(F)(F)F)c1 (stereo not drawn) [Compound 10] | 50 to 70 | 100 | 
30 | Cc1cc(C2=NOC(c3cc(Cl)cc(Cl)c3)(C(F)(F)F)C2)ccc1C(=O)Nc1cnn(-c2ccccc2F)c1 (stereo not drawn) [Compound 42] |  | 50 to 70 | 
31 | Cc1cc(C2=NOC(c3cc(Cl)c(F)c(Cl)c3)(C(F)(F)F)C2)ccc1C(=O)Nc1cnn(S(=O)(=O)C2CCCCC2)c1 (stereo not drawn) [Compound 157] | 90 to 100 | 100 | 
32 | Cc1cc(C2=NOC(c3cc(Cl)c(F)c(Cl)c3)(C(F)(F)F)C2)ccc1C(=O)Nc1cnn(CC2CCC2)c1 (stereo not drawn) [Compound 134] |  | 70 to 80 | 
33 | Cc1cc(C2=NOC(c3cc(Cl)cc(Cl)c3)(C(F)(F)F)C2)ccc1C(=O)Nc1cnn(S(=O)(=O)C(C)C)c1 (stereo not drawn) [Compound 72] |  | 50 to 70 | 
34 | COCn1cc(NC(=O)c2ccc(C3=NOC(c4cc(Cl)cc(Cl)c4)(C(F)(F)F)C3)cc2C)cn1 (stereo not drawn) [Compound 12] | 50 to 70 | 50 to 70 | 
35 | Cc1cc(C2=NOC(c3cc(Cl)cc(Cl)c3)(C(F)(F)F)C2)ccc1C(=O)Nc1cnn(S(C)(=O)=O)c1 (stereo not drawn) [Compound 69] |  | 50 to 70 | 
36 | Cc1cc(C2=NOC(c3cc(Cl)cc(Cl)c3)(C(F)(F)F)C2)ccc1C(=O)Nc1cnn(C2CCOC2)c1 (stereo not drawn) [Compound 39] |  | 50 to 70 | 
37 | Cc1cc(C2=NOC(c3cc(Cl)c(F)c(Cl)c3)(C(F)(F)F)C2)ccc1C(=O)Nc1cnn(S(C)(=O)=O)c1 (stereo not drawn) [Compound 151] |  | 70 to 80 | 
38 | CCC(CC)n1nc(C)c(NC(=O)c2ccc(C3=NOC(c4cc(Cl)cc(Cl)c4)(C(F)(F)F)C3)cc2C)c1C (stereo not drawn) [Compound 102] |  | 50 to 70 | 
39 | Cc1cc(C2=NOC(c3cc(Cl)cc(Cl)c3)(C(F)(F)F)C2)ccc1C(=O)Nc1cn[nH]c1 (stereo not drawn) [Compound 1] | 50 to 70 | 70 to 80 | 
40 | Cc1cc(C2=NOC(c3cc(Cl)c(F)c(Cl)c3)(C(F)(F)F)C2)ccc1C(=O)Nc1cnn(Cc2ccccc2)c1 (stereo not drawn) [Compound 139] |  | 50 to 70 | 
41 | CCCS(=O)(=O)n1cc(NC(=O)c2ccc(C3=NOC(c4cc(Cl)c(F)c(Cl)c4)(C(F)(F)F)C3)cc2C)cn1 (stereo not drawn) [Compound 153] | 70 to 80 | 90 to 100 | 
42 | CCCn1cc(NC(=O)c2ccc(C3=NOC(c4cc(Cl)cc(Cl)c4)(C(F)(F)F)C3)cc2C)cn1 (stereo not drawn) [Compound 4] | 50 to 70 | 50 to 70 | 
43 | Cc1cc(C2=NOC(c3cc(Cl)cc(Cl)c3)(C(F)(F)F)C2)ccc1C(=O)Nc1cnn(C2CCC2)c1 (stereo not drawn) [Compound 24] |  | 50 to 70 | 
44 | Cc1cc(C2=NOC(c3cc(Cl)c(F)c(Cl)c3)(C(F)(F)F)C2)ccc1C(=O)Nc1c(C)nn(C)c1C (stereo not drawn) [Compound 159] |  |  | B (90% to less than 100%)
45 | Cc1cc(C2=NOC(c3cc(Cl)cc(Cl)c3)(C(F)(F)F)C2)ccc1C(=O)Nc1cnn(CCCF)c1 (stereo not drawn) [Compound 11] | 50 to 70 | 100 | 
46 | CCn1cc(NC(=O)c2ccc(C3=NOC(c4cc(Cl)c(F)c(Cl)c4)(C(F)(F)F)C3)cc2C)cn1 (stereo not drawn) [Compound 125] | 100 | 100 | 
47 | CCCC(=O)n1cc(NC(=O)c2ccc(C3=NOC(c4cc(Cl)cc(Cl)c4)(C(F)(F)F)C3)cc2C)cn1 (stereo not drawn) [Compound 60] |  | 50 to 70 | 
48 | COc1cccc(-n2cc(NC(=O)c3ccc(C4=NOC(c5cc(Cl)cc(Cl)c5)(C(F)(F)F)C4)cc3C)cn2)c1 (stereo not drawn) [Compound 51] |  | 50 to 70 | 
49 | Cc1cc(C2=NOC(c3cc(Cl)c(F)c(Cl)c3)(C(F)(F)F)C2)ccc1C(=O)Nc1cnn(S(=O)(=O)c2ccccc2)c1 (stereo not drawn) [Compound 155] |  | 50 to 70 | 
50 | Cc1cc(C2=NOC(c3cc(Cl)c(F)c(Cl)c3)(C(F)(F)F)C2)ccc1C(=O)Nc1cnn(C(=O)N(C)C)c1 (stereo not drawn) [Compound 149] | 100 | 100 | 
51 | Cc1cc(C2=NOC(c3cc(Cl)c(F)c(Cl)c3)(C(F)(F)F)C2)ccc1C(=O)Nc1c(C)nn(C(=O)C2CCC2)c1C (stereo not drawn) [Compound 174] |  | 70 to 80 | 
52 | C#CCn1cc(NC(=O)c2ccc(C3=NOC(c4cc(Cl)cc(Cl)c4)(C(F)(F)F)C3)cc2C)cn1 (stereo not drawn) [Compound 28] | 80 to 90 | 100 | 
